“And” between values parts separate entries of the source, which are not always exact repeats. Equal values may be shown once. Read-outs that look alike come from different tables or passages of the source.

Series [1] concerns Human lung adenocarcinoma A549 cells. The series can be described thus: XTT cell viability / IC50 of anti-cancer drugs, A549 cells in 3D lung tumor model. It counts as cell-based. As to conditions: for IC50: 72 h drug. On the procedure: (§1) Cell Expansion. […] Forming 3D Lung Tumor Model. […] Drug Treatment. […] After 72 hours, cell viability was assayed. […] Cell Proliferation Assay. […] Data Analysis.
A general note: Tetrazolium dyes change colour on reduction, which living cells bring about.

The test system of series [2] is Human lung adenocarcinoma Jacket cells. The series can be described thus: XTT cell viability / IC50 of anti-cancer drugs, Jacket cells in 3D lung tumor model. Type of series: cell-based. As to conditions: for growth inhibition (cell viability): Jacket cells, doses 0.1-10 μM, 3D TissueSpec® Lung ECM Hydrogel and 2D plastic. On the procedure: as §1
The nature of series [3]: Diffusion assay through lung ECM hydrogel. Type of series: physicochemical. The text has this:
The difference in IC50 values of the three drugs in this study are attributable to the different cellular mechanism that each drug targets as well as expression of and access to each target. Erlotinib is an inhibitor of epidermal growth factor receptor (EGFR) tyrosine kinase, whereas Etoposide inhibits DNA topoisomerase II, which prevents DNA ligation and ultimately causes DNA strands to break. KPT-185 induces apoptosis as a selective inhibitor of nuclear export (SINE) compound. […] Another important consideration for drug testing in 3D culture systems is drug permeability through the ECM and cell membrane.

For series [4] the following is noted: clinical trials; cited from earlier work.
For series [5], the system named is MCF-7 and MB-231 breast cancer cells. As to conditions: previous studies; cited from earlier work.
Series [6] deals with breast cancer cells T47-D. The series can be described thus: Viability assay of breast cancer cells embedded in TissueSpec ECM hydrogels. As to conditions: 72 hours, Bone, Liver, Lung ECM Hydrogels, Matrigel, plastic. Also on record: dose or concentration left out as unconfirmed. Type of series: cell-based, human.
Method: Methods. Viability assays were performed on breast cancer cells T47-D embedded in TissueSpec® Bone, Liver, and Lung ECM Hydrogels and treated with Tamoxifen (20 M and 40 M) or vehicle (DMSO) for 72 hours. Matrigel and plastic were used as control substrates.
Where [7] appears, read: Homo sapiens, A549, 72 h, A549 cells in Matrigel®.
Setting [8] is: Homo sapiens, A549, 72 h, A549 cells in TissueSpec® Lung ECM Hydrogel (3D).
Where [9] appears, read: Homo sapiens, A549, 72 h, A549 cells on Plastic (no ECM), 2D.
Setting [10] is: Homo sapiens, 72 h, Jacket cells in Matrigel®, 72 h drug, read-out: IC50.
Setting [11] is: Homo sapiens, 72 h, Jacket cells in TissueSpec® Lung ECM Hydrogel (3D), 72 h drug, read-out: IC50.
Where [12] appears, read: Homo sapiens, 72 h, Jacket cells on Plastic (no ECM), 2D, 72 h drug, read-out: IC50.
The mark [13] stands for this setting: Jacket cells in TissueSpec® Lung ECM Hydrogel, reproducibility, two rounds, read-out: IC50 in two separate rounds of testing.

Take `COc1cc([C@@H]2c3cc4c(cc3[C@@H](O[C@@H]3O[C@@H]5CO[C@@H](C)O[C@H]5[C@H](O)[C@H]3O)[C@H]3COC(=O)[C@H]23)OCO4)cc(OC)c1O` [Etoposide]: the 50% inhibitory concentration (IC50) – broadly, the point on the concentration scale where inhibition reaches its midpoint – in series [1] (setting [7]) was determined as 35.5 µM; in series [1] (setting [8]), 16.6 µM; in series [1] (setting [9]), 40.3 µM; in series [2] (setting [10]) it was 15.8 µM; in series [2] (setting [11]) it was 3.7 µM; in series [2] (setting [12]), 4.4 µM. In addition, the IC50 in series [2] (Homo sapiens, Jacket cells in TissueSpec® Lung ECM Hydrogel, reproducibility, two rounds, read-out: IC50 in two separate rounds of testing) was found to be 3.8 µM; in series [2] (Jacket cells in Matrigel®, reproducibility, two rounds, read-out: IC50 in two separate rounds of testing) it was 0.7 µM; in series [2] (setting [13]) it was 4 µM. The “growth inhibition (cell viability)” value in series [2] is recorded as “dose-dependent growth inhibition”.

`C#Cc1cccc(Nc2ncnc3cc(OCCOC)c(OCCOC)cc23)c1` [Erlotinib]: the “growth inhibition (cell viability)” value in series [1] (A549 cells, doses 0.1-10 μM, 3D TissueSpec® Lung ECM Hydrogel and plastic) is reported as “dose-dependent growth inhibition”. In addition, the half-inhibitory concentration (IC50) came out at 57.5 µM in series [1] (setting [7]); 134 µM in series [1] (setting [8]); 36.4 µM in series [1] (setting [9]); 8.7 µM in series [2] (setting [10]); 7.5 µM in series [2] (setting [11]); 5.2 µM in series [2] (setting [12]).

As to `CC1=CC(C)(C)N(C)c2cc3[o+]c4cc5c(cc4c(-c4cc(NC(=O)c6ccc(CCl)cc6)ccc4C(=O)[O-])c3cc21)C(C)=CC(C)(C)N5C.CC1=CC(C)(C)N(C)c2cc3[o+]c4cc5c(cc4c(-c4ccc(NC(=O)c6ccc(CCl)cc6)cc4C(=O)[O-])c3cc21)C(C)=CC(C)(C)N5C` [CellTracker Red CMTPX], in series [3], the “diffusion speed through TissueSpec® Lung ECM Hydrogel” value is on record as no less than 1.3 mm/h.

For the compound `CNC(=O)c1cc(Oc2ccc(NC(=O)Nc3ccc(Cl)c(C(F)(F)F)c3)cc2)ccn1` [sorafenib], the “HCC patient plasma concentration” value in series [4] is 2 mg/L and 4 μM.

On to `COc1cccc2c1C(=O)c1c(O)c3c(c(O)c1C2=O)C[C@@](O)(C(=O)CO)C[C@@H]3O[C@H]1C[C@H](N)[C@H](O)[C@H](C)O1` [doxorubicin], for which the “resistance when cultured in Matrigel®” value in series [5] is recorded as “more resistant to doxorubicin when cultured in Matrigel®”.

Take `COc1cc(-c2ncn(/C=C\C(=O)OC(C)C)n2)cc(C(F)(F)F)c1` [KPT-185]: the IC50 stood at 4.2 µM in series [1] (A549 cells in Matrigel®); 2.3 µM in series [1] (A549 cells in TissueSpec® Lung ECM Hydrogel (3D)); 8.8 µM in series [1] (A549 cells on Plastic (no ECM), 2D); 4.3 µM in series [2] (Jacket cells in Matrigel®, 72 h drug, read-out: IC50); 0.4 µM in series [2] (Jacket cells in TissueSpec® Lung ECM Hydrogel (3D), 72 h drug, read-out: IC50); 0.4 µM in series [2] (setting [13]). In series [2] (Jacket cells on Plastic (no ECM), 2D, 72 h drug, read-out: IC50), the IC50 is 0.2 µM. Besides, the “growth inhibition (cell viability)” value in series [2] is reported as “dose-dependent growth inhibition”.

On to `CC/C(=C(\c1ccccc1)c1ccc(OCCN(C)C)cc1)c1ccccc1` [tamoxifen, Tamoxifen], for which the “differential viability response by substrate” value in series [6] is “cells embedded in lung and bone ECM are more resistant than cells embedded in liver, matrigel or plastic”.
